For this test, the target named is CREB-binding protein (Homo sapiens, UniProt Q92793). The test is described as follows: Inhibition of CREBBP (unknown origin) by TR-FRET assay.

This note sets out measurements from ChEMBL document CHEMBL5335862, “The Science and Art of Structure-Based Virtual Screening” (ACS Med Chem Lett, 2024).

SMILES strings stand for the structures.

Sequence of CREB-binding protein (Q92793 whole entry): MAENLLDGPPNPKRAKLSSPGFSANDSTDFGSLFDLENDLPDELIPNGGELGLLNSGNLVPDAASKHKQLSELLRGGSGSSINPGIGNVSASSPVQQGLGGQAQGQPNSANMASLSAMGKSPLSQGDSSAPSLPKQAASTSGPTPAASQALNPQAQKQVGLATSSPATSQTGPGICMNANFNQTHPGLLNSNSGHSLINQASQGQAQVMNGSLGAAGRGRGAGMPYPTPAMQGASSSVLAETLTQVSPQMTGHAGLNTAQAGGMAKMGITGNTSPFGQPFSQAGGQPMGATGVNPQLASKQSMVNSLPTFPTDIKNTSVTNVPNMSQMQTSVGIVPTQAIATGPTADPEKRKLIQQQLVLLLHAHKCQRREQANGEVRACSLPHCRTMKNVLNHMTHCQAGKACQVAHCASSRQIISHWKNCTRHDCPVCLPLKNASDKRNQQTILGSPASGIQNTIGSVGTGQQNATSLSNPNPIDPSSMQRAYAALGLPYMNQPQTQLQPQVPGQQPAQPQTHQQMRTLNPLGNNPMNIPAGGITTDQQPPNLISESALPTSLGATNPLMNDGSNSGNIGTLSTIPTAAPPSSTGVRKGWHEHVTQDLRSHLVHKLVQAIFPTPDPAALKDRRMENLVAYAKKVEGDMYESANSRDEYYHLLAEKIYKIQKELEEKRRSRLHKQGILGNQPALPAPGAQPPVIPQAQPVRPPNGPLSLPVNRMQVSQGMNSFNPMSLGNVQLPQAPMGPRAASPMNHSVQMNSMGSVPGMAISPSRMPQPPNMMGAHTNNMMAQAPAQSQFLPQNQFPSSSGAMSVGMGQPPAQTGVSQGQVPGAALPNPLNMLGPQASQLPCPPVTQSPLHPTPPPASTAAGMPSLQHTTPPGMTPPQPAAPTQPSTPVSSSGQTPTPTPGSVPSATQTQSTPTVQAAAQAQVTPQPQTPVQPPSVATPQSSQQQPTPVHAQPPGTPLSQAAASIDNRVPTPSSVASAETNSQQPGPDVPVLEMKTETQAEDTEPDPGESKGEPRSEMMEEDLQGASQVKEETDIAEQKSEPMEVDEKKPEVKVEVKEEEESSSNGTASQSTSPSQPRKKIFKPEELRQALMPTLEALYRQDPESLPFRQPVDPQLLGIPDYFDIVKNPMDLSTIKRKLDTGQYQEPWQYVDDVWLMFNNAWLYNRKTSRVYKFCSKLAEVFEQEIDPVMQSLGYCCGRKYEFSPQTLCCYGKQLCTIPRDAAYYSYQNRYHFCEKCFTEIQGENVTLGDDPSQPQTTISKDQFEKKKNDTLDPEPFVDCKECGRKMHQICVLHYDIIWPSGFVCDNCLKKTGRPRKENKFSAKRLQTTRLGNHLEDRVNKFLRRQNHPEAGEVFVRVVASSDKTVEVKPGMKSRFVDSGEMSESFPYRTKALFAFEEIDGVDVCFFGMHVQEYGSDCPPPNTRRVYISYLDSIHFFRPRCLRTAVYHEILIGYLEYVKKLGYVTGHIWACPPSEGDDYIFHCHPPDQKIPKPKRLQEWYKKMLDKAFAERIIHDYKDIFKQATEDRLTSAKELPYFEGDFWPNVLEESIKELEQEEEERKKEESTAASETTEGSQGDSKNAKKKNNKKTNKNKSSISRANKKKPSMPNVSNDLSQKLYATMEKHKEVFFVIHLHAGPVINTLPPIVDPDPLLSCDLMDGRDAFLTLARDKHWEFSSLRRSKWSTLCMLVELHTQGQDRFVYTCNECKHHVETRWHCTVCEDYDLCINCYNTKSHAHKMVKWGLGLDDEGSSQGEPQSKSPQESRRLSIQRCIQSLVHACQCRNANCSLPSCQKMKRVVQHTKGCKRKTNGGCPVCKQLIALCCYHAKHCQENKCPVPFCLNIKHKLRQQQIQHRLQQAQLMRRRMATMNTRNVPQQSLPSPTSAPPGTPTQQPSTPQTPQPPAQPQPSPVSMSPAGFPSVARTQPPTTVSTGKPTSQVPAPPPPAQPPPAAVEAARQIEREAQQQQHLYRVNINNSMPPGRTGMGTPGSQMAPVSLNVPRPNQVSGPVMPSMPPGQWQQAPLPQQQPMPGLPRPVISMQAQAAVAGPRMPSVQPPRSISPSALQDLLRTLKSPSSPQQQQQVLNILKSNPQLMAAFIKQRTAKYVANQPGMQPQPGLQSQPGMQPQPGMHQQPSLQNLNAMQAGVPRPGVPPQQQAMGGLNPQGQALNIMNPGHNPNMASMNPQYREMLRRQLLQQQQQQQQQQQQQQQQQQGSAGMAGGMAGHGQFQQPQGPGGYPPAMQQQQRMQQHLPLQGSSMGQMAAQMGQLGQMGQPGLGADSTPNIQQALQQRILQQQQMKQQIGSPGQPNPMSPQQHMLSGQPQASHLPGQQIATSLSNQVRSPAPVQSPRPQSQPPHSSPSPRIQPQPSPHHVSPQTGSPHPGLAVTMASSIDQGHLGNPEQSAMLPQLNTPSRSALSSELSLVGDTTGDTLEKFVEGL

Take `Cc1ccc(O)cc1-n1c(N)c(C(N)=O)c2nc3ccccc3nc21`: the IC50 worked out at 0.3 µM. That is a sub-micromolar value.

In turn, `Cc1cc2c(C(N)=O)c(N)n(-c3c(C)ccc(O)c3C)c2nc1C` [LUNRESERTIB] showed an IC50 of 0.3 µM.
